As a reminder, the inhibition is the share of the control response that was lost under treatment. Read a high inhibition as a strong effect.

This is an account of results in US9481636B2, “N-benzylaniline derivative and uses thereof” (Nanjing Medical University, priority 2011, dated 2016).

The test has as its system OGD-injuried neurons (primary cortical neurons). Description: Cell viability assay: LDH release by OGD-injured primary cortical neurons. Format: cell-based, mice. To be noted: drug concentration 10^−6 M/L, OGD 2 hours, LDH after 8 hours; for inhibition at 1 µM: Mus musculus, Primary cortical neuron. The method, then:
After primary neurons were cultured for 9 days, the medium was replaced by DMEM high glucose medium containing 1% FBS, serum-starved overnight and then washed twice with OGD culture solution. This OGD culture solution contains DMEM medium, 1% FBS, 1% penicillin/streptomycin and B27, and contains no sugar. Then, the primary neurons were incubated with the test drugs for 30 minutes, OGD culture solution was added into an anaerobic tank and oxygen-deprived for 2 hours. The OGD culture solution was discarded, and replaced by oxygen-saturated DMEM medium containing 1% FBS, 1% penicillin/streptomycin and B27. After 8 hours the culture solution was collected to measure LDH level.
After the primary cortical neurons were treated with various processes, neuronal culture solution in six-well plates was pipetted to a 1.5 mL plastic centrifuge tube; cells were washed three times with PBS solution and each well was added PBS 1000 μl. The cells were freezed and thawed repeated for three times, centrifuged at 12000′ g for 5 minutes at 4° C., and the supernatant was removed for use. The activity of LDH enzyme was determined with 50 μl culture solution and 25 μl supernatant using lactate dehydrogenase kit.
Protective Effects of the Objective Compounds Against Primary Cortical Neuronal Injury Cultured In Vitro (See Table 2)
(Release of lactate dehydrogenase indicates damage to the cell membrane.)

Take `CC(=O)Oc1c(Cl)cc(Br)cc1CNc1ccc(C(=O)OC2CC3CCC2(C)C3(C)C)c(O)c1` (stereo not shown) [ZL006-78, bornyl-2-hydroxy-4-(2-acetyloxy-3-chloro-5-bromobenzyl) aminobenzoate]: the “Inhibition of LDH release (%)” value came out at 70.6%.
For the compound `CN(Cc1cc(F)cc(Cl)c1O)c1ccc(C(=O)OC2CC3CCC2(C)C3(C)C)c(O)c1` (stereo not shown) [ZL006-61, bornyl-2-hydroxy-4-[N-(2-hydroxy-3-chloro-5-fluorobenzyl)-N-methyl]aminobenzoate], the “Inhibition of LDH release (%)” value came out at 56.5%.
The same measure, in the same setting: in the case of `CCCCCC(=O)Oc1cc(NCc2cc(Cl)cc(Cl)c2O)ccc1C(=O)OC1CC2CCC1(C)C2(C)C` (stereo not shown) [ZL006-24, bornyl-2-hexanoyloxy-4-(2-hydroxy-3,5-dichlorobenzyl) aminobenzoate] it was 31.2%.
`CC(=O)N(Cc1cc(C(F)(F)F)cc(Cl)c1O)c1ccc(C(=O)OC2CC3CCC2(C)C3(C)C)c(O)c1` (stereo not shown) [ZL006-54, bornyl-2-hydroxy-4-[N-(2-hydroxy-3-chloro-5-trifluoromethylbenzyl)-N-acetyl]aminobenzoate]: the “Inhibition of LDH release (%)” value is on record as 74.2%.
In the case of “bornyl-2-(2-methoxy-2-carbonylethoxy)-4-[N-(2-hydroxy-3,5-dichlorobenzyl)-N-methyl]aminobenzoate [ZL006-34]”, the “Inhibition of LDH release (%)” value is given as 24.1%.
`CC1(C)C2CCC1(C)C(OC(=O)c1cc(NCc3cc(Br)ccc3O)ccc1O)C2` (stereo not shown) [ZL006-04, bornyl-2-hydroxy-5-(2-hydroxy-5-bromobenzyl) aminobenzoate]: the “Inhibition of LDH release (%)” value is recorded as 26.9%.
On to `COc1c(C(=O)OC2CC3CCC2(C)C3(C)C)ccc(NCc2cc(Cl)cc(Cl)c2O)c1Cl` (stereo not shown) [ZL006-26, bornyl-2-methoxy-3-chloro-4-(2-hydroxy-3,5-dichlorobenzyl)aminobenzoate], for which the inhibition at 1 µM came out at 35.4%.
Take `CCCCOc1cc(NCc2cc(Br)cc(Cl)c2O)ccc1C(=O)OC1CC2CCC1(C)C2(C)C` (stereo not shown) [ZL006-42, bornyl-2-n-butoxy-4-(2-hydroxy-3-chloro-5-bromobenzyl) aminobenzoate]: the “Inhibition of LDH release (%)” value is 37.7%.
The same measure, in the same setting: with `CC1(C)C2CCC1(C)C(OC(=O)c1cc(NCc3cc(Cl)cc(Cl)c3O)ccc1O)C2` (stereo not shown) [ZL006-01, bornyl-2-hydroxy-5-(2-hydroxy-3,5-dichlorobenzyl) aminobenzoate] the figure was 2.3%.
Turning to `COc1c(Cl)cc(Cl)cc1CNc1ccc(C(=O)OC2CC3CCC2(C)C3(C)C)c(O)c1` (stereo not shown) [ZL006-75, bornyl-2-hydroxy-4-(2-methoxy-3,5-dichlorobenzyl) aminobenzoate], the “Inhibition of LDH release (%)” value came out at 31.3%.
The same measure, in the same setting: with `CC(Nc1ccc(C(=O)O)c(O)c1)c1cc(Cl)ccc1O` (stereo not shown) [ZL006-14, 2-hydroxy-4-[1-(2-hydroxy-5-chlorophenyl)]-ethylaminobenzoic acid] the figure was 19.9%; with `CC(=O)Oc1cc(NCc2cc(F)ccc2O)ccc1C(=O)OC1CC2CCC1(C)C2(C)C` (stereo not shown) [ZL006-71, bornyl-2-acetyloxy-4-(2-hydroxy-5-fluorobenzyl) aminobenzoate], 7.8%.
In turn, `COc1cc(NCc2cc(C(F)(F)F)cc(Cl)c2O)ccc1C(=O)OC1CC2CCC1(C)C2(C)C` (stereo not shown) [ZL006-49, bornyl-2-methoxy-4-(2-hydroxy-3-chloro-5-trifluoromethylbenzyl)aminobenzoate] gave an inhibition at 1 µM of 32.6%.
For the compound `CC(=O)Oc1ccc(NCc2cc(Cl)cc(Cl)c2O)cc1C(=O)OC1CC2CCC1(C)C2(C)C` (stereo not shown) [ZL006-02, bornyl-2-acetyloxy-5-(2-hydroxy-3,5-dichlorobenzyl) aminobenzoate], the “Inhibition of LDH release (%)” value is on record as 21.4%.
Take `COc1cc(NCc2cc(C(F)(F)F)ccc2O)ccc1C(=O)OC1CC2CCC1(C)C2(C)C` (stereo not shown) [ZL006-73, bornyl-2-methoxy-4-(2-hydroxy-5-trifluoromethylbenzyl) aminobenzoate]: the “Inhibition of LDH release (%)” value turned out to be 25.3%.
On to `CCCC(=O)Oc1cc(NCc2cc(F)cc(Cl)c2O)ccc1C(=O)OC1CC2CCC1(C)C2(C)C` (stereo not shown) [ZL006-60, bornyl-2-butyryloxy-4-(2-hydroxy-3-chloro-5-fluorobenzyl)aminobenzoate], for which the inhibition at 1 µM is 68.4%.
